From patent US20070275100A1, “Use of gaseous nitric oxide as an anti-cancer agent” (priority 1998, published 2007)
Values joined by “and” are separate entries in the source; they are usually repeats but may differ in a detail not shown here. Equal entries are not always repeated.

How the values were obtained:
HTB-58 = assay: MTS cell proliferation assay, 25,000 ppm gNO (Example 4), HTB-58; type: cell-based, human
From the text: The purpose of this example is to illustrate the tumorcidal activity of high-dosage gNO. We examined the cellular sensitivity to 25,000 ppm of gNO on 5 non-small cell lung cancer (NSCLC) cells lines by an MTS cell proliferation assay.
Human lung cancer cell lines A549, NCI-H23, NCI-H460, HTB-58, H2170, and H441 (commercially available from American Type Culture Collection (“ATCC”), Manassas, Va.) were maintained in culture medium recommended by ATCC. All media were supplemented with 1% penicillin/streptomycin and 10% fetal bovine serum (commercially available from Invitrogen Gibco-BRL, Burlington, Ontario, Canada). […]
After 24 hours, the A549, NCI-H23, NCI-H460, HTB-58, H2170 and H441 cells were treated with 25,000 ppm gNO or air (control) for 1 minute, 3 minutes, 6 minutes, 9 minutes, 10 minutes, 20 minutes, and 30 minutes. Immediately following treatment, the viability of the cells was determined using a colorimetric MTS (3-(4,5-dimethylthiazol-2-yl)-5-(3-carboxymethoxyphenyl)-2-(4-sulfophenyl)-2H-tetrazolium, inner salt) cell proliferation assay (commercially available as the CellTiter 960 Aqueous One Solution Cell Proliferation Assay (MTS) from Promega, Madison, Wis., USA) according to the manufacturer's protocol. […] Absorbance was measured at 490 nm for each well using a micro-plate reader (commercially available from Dynex Technologies, Chantilly, Va., USA). […]

[1] = test system: squamous lung cancer cells (H2170); assay: Viability under 25,000 ppm gNO (Example 5), H2170; type: cell-based; settings: Homo sapiens, NCI-H2170, 0.1 h, after 6 minutes, FIG. 8 D
Description: After 24 hours, the A549, NCI-H23, NCI-H460, HTB-58, H2170 and H441 cells were treated with 25,000 ppm gNO or air (control) for 1 minute, 3 minutes, 6 minutes, 9 minutes, 10 minutes, 20 minutes, and 30 minutes. Immediately following treatment, the viability of the cells was determined using a colorimetric MTS (3-(4,5-dimethylthiazol-2-yl)-5-(3-carboxymethoxyphenyl)-2-(4-sulfophenyl)-2H-tetrazolium, inner salt) cell proliferation assay (commercially available as the CellTiter 960 Aqueous One Solution Cell Proliferation Assay (MTS) from Promega, Madison, Wis., USA) according to the manufacturer's protocol. Briefly, […] of MTS solution was added to each well and the cells were incubated for 2 hours at 37° C. Absorbance was measured at 490 nm for each well using a micro-plate reader (commercially available from Dynex Technologies, Chantilly, Va., USA). The relative percentage of cell survival (viability) was calculated by dividing the absorbance of treated cells by that of control cells for each experimental time point.
The purpose of this example is to illustrate the effects on normal human cell lines compared to the effects on cancerous cell lines of high-dosage gNO. The above study was repeated. […]

[2] = test system: A549-epithelial lung carcinoma cells; assay: MTS proliferation assay, A549 cells under continuous gNO exposure (Example 1); type: cell-based, human; settings: for Corrected Average: blank subtracted; for survivability: 24 hours continuous exposure, compared to air (control)
Description: (gNO) 200 ppm and 350 ppm compared to air (control) on the survival of a representative line of cancer cells. Cancer cell lines (A549-epithelial lung carcinoma cells and H460-epithelial metastatic; large cell lung cancer cells) were prepared in F12 medium and suspended in six 96-well plates (3 treatment and 3 controls). […] The plates then were removed and cell viability assessed by an MTS proliferation assay.
When exposed to 350 ppm of gNO, however, cancer cell survival rates decrease dramatically.

[3] = 200 ppm NO, 1 hour, F12 medium, listed as NO
[4] = 200 ppm NO, 1 hour, HBSS medium
[5] = 200 ppm NO, 2.5 hours, F12 medium
[6] = 200 ppm NO, 2.5 hours, F12 medium, listed as NO
[7] = 200 ppm NO, 2.5 hours, HBSS medium
[8] = 200 ppm NO, 3.5 hours, F12 medium
[9] = 200 ppm NO, 3.5 hours, F12 medium, listed as NO
[10] = 200 ppm NO, 3.5 hours, HBSS medium
[11] = 350 ppm NO, 2 hours, F12 medium
[12] = 350 ppm NO, 2 hours, F12 medium, listed as NO

For `[N]=O` [gNO, nitric oxide], the “IC50 (exposure time)” value (HTB-58) was “about 7 minutes”, the viability at 25000 ppm [1] was less than 10% and the Average ([2]; 200 ppm NO, 1 hour, F12 medium) was 0.852. The Survival ([2]; 200 ppm NO, 1 hour, F12 medium) was “up to 92%”, the “Corrected Average” value ([2]; 200 ppm NO, 1 hour, F12 medium) was 0.621 and the “MTS assay reading, individual wells” value [2, 3] was 0.842 and 0.955 and 0.793 and 0.818 and 0.828 and 0.78 and 0.805 and 0.936 and 0.959 and 0.91 and 0.827 and 0.8 and 0.795 and 0.759 and 0.945 and 0.886. The Survival [2, 3] was 92%, the Average [2, 4] was 0.06 and the “MTS assay reading, individual wells” value [2, 4] was 0.062 (2×) and 0.058 (2×) and 0.057 (2×) and 0.056 (2×) and 0.06 (3×) and 0.067 (2×) and 0.059 and 0.055. For the same compound, the Survival [2, 4] was 0%, the “Corrected Average” value [2, 4] was 0 and the Average [2, 5] was 1.276. The Survival [2, 5] was “up to 90%”, the “Corrected Average” value [2, 5] was 0.918 and the “MTS assay reading, individual wells” value [2, 6] was 1.261 and 1.178 and 1.33 and 1.422 and 1.454 and 1.458 and 1.354 and 1.105 and 1.348 and 1.082 and 1.329 and 1.237 and 1.272 and 0.995 and 1.284 and 1.299. For the same compound, the Survival [2, 6] was 90%, the Average [2, 7] was 0.06 and the “MTS assay reading, individual wells” value [2, 7] was 0.063 and 0.059 (3×) and 0.058 (2×) and 0.061 and 0.06 (2×) and 0.069 (2×) and 0.057 (2×) and 0.056 and 0.062. The Survival [2, 7] was 0%, the “Corrected Average” value [2, 7] was 0 and the Average [2, 8] was 1.529. For the same compound, the Survival [2, 8] was “up to 87%”, the “Corrected Average” value [2, 8] was 1.059 and the “MTS assay reading, individual wells” value [2, 9] was 1.587 and 1.525 and 1.665 and 1.444 and 1.642 and 1.332 and 1.639 and 1.551 and 1.567 and 1.863 and 1.335 and 1.325 and 1.575 and 1.227 and 1.561 and 1.625. For the same compound, the Survival [2, 9] was 87%, the Average [2, 10] was 0.061 and the “MTS assay reading, individual wells” value [2, 10] was 0.063 (2×) and 0.059 (3×) and 0.058 (3×) and 0.061 (2×) and 0.06 and 0.069 and 0.057 and 0.056 and 0.07. The Survival [2, 10] was 0%, the “Corrected Average” value [2, 10] was 0 and the survivability ([2]; 200 ppm gNO) was “greater than 90%”. The Average [2, 11] was 0.110, the Survival [2, 11] was “about 2%” and the “Corrected Average” value [2, 11] was 0.009. For the same compound, the “MTS assay reading, individual wells” value [2, 12] was 0.104 and 0.115 and 0.106 (2×) and 0.110 and 0.116 and 0.119, the Survival [2, 12] was 1% and the survivability ([2]; 350 ppm gNO) was 1%.
